Test results taken from the supplement of paper PMC10307832.

How the values were obtained:
Experiment in all cases: relative viability (nuclei count vs DMSO), 5 days (fraction); higher = more cells survive
[1] = compound: Cn1cc(-c2cnn3c(N)c(Br)c([C@@H]4CCCNC4)nc23)cn1 + O=C(CCCCCCC(=O)Nc1ccccc1)NO [Vorinostat] (partner 1 µM)
Method in brief: (§1)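 Relative viability was taken as the ratio of nuclei in treated wells to nuclei in vehicle wells. Lung cancer cell lines in 1536-well plates received compounds by pin tool one day after seeding, either one drug alone or a fixed anchor-drug dose plus five library-drug doses (not always all listed) in √10 steps. Nuclei were counted on 4× images after 5 days of treatment, and values are medians of duplicate plates.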

[2] = compound: Cn1cc(-c2cnn3c(N)c(Br)c([C@@H]4CCCNC4)nc23)cn1 + C[C@@H](Oc1cc(-c2cnn(C3CCNCC3)c2)cnc1N)c1c(Cl)ccc(F)c1Cl [Crizotinib] (partner 1 µM)
Method in brief: as §1

[3] = compound: Cn1cc(-c2cnn3c(N)c(Br)c([C@@H]4CCCNC4)nc23)cn1 + NC(=O)Nc1cc(-c2cccc(F)c2)sc1C(=O)N[C@H]1CCCNC1 [AZD7762] (partner 0.2 µM)
Method in brief: as §1

[4] = compound: Cn1cc(-c2cnn3c(N)c(Br)c([C@@H]4CCCNC4)nc23)cn1 + CC(=O)c1c(C)c2cnc(Nc3ccc(N4CCNCC4)cn3)nc2n(C2CCCC2)c1=O [Palbociclib] (partner 0.5 µM)
Method in brief: as §1

| Cell Line | relative viability ([1]; first compound 0.05 µM) | relative viability ([1]; first compound 0.1581 µM) | relative viability ([1]; first compound 0.5 µM) | relative viability ([1]; first compound 1.581 µM) | relative viability ([1]; first compound 5 µM) | relative viability ([2]; first compound 0.05 µM) | relative viability ([2]; first compound 0.1581 µM) | relative viability ([2]; first compound 0.5 µM) | relative viability ([2]; first compound 1.581 µM) | relative viability ([2]; first compound 5 µM) | relative viability ([3]; first compound 0.05 µM) | relative viability ([3]; first compound 0.1581 µM) | relative viability ([3]; first compound 0.5 µM) | relative viability ([3]; first compound 1.581 µM) | relative viability ([3]; first compound 5 µM) | relative viability ([4]; first compound 0.05 µM) | relative viability ([4]; first compound 0.1581 µM) | relative viability ([4]; first compound 0.5 µM) | relative viability ([4]; first compound 1.581 µM) | relative viability ([4]; first compound 5 µM) |
| --- | --- | --- | --- | --- | --- | --- | --- | --- | --- | --- | --- | --- | --- | --- | --- | --- | --- | --- | --- | --- |
| HOP-62 | 0.698 | 0.775 | 0.645 | 0.386 | 0.209 | 0.999 | 1.07 | 1.01 | 0.925 | 0.884 | 0.526 | 1.06 | 0.622 | 0.534 | 0.271 | 0.438 | 0.5 | 0.485 | 0.417 | 0.334 |
| LC-2-ad | 0.683 | 0.808 | 0.662 | 0.76 | 0.735 | 0.503 | 0.439 | 0.419 | 0.447 | 0.426 | 0.841 | 0.949 | 0.819 | 0.805 | 0.881 | 0.499 | 0.515 | 0.441 | 0.435 | 0.483 |
| LCLC-97TM1 | 0.67 | 0.95 | 0.936 | 0.582 | 0.433 | 0.34 | 0.658 | 0.581 | 0.483 | 0.228 | 0.296 | 0.367 | 0.264 | 0.217 | 0.222 | 0.248 | 0.236 | 0.242 | 0.242 | 0.178 |
| LCLC-103H | 0.738 | 0.879 | 0.824 | 0.615 | 0.597 | 1.04 | 1.11 | 1.13 | 1.03 | 1.1 | 0.834 | 0.914 | 0.728 | 0.738 | 0.685 | 0.521 | 0.447 | 0.467 | 0.515 | 0.466 |
| LK-2 | 0.276 | 0.351 | 0.236 | 0.249 | 0.162 | 0.23 | 0.216 | 0.188 | 0.243 | 0.232 | 0.303 | 0.408 | 0.33 | 0.315 | 0.209 | 0.703 | 0.658 | 0.678 | 0.542 | 0.431 |
| LOU-NH91 | 0.849 | 0.911 | 0.908 | 0.863 | 0.703 | 0.727 | 0.724 | 0.739 | 0.713 | 0.626 | 0.373 | 0.744 | 0.761 | 0.727 | 0.642 | 0.544 | 0.539 | 0.47 | 0.506 | 0.52 |
| LU99A | 0.46 | 0.469 | 0.452 | 0.36 | 0.216 | 0.55 | 0.573 | 0.551 | 0.482 | 0.31 | 0.371 | 0.392 | 0.304 | 0.264 | 0.224 | 0.421 | 0.458 | 0.386 | 0.392 | 0.339 |
| LXF-289 | 0.731 | 0.795 | 0.745 | 0.746 | 0.757 | 0.82 | 0.929 | 0.945 | 0.81 | 0.807 | 1.09 | 1.16 | 1.09 | 0.981 | 1.05 | 0.618 | 0.663 | 0.585 | 0.555 | 0.654 |
| NCI-H23 | 0.547 | 0.508 | 0.424 | 0.206 | 0.125 | 0.444 | 0.534 | 0.437 | 0.322 | 0.183 | 0.253 | 0.273 | 0.25 | 0.162 | 0.123 | 0.568 | 0.496 | 0.552 | 0.34 | 0.25 |
| NCI-H322M | 0.871 | 0.831 | 0.754 | 0.626 | 0.394 | 0.874 | 0.962 | 0.884 | 0.785 | 0.576 | 0.51 | 0.428 | 0.501 | 0.447 | 0.407 | 0.424 | 0.458 | 0.452 | 0.463 | 0.393 |
| NCI-H358 | 0.748 | 0.732 | 0.422 | 0.455 | 0.302 | 0.586 | 0.575 | 0.375 | 0.655 | 0.339 | 0.417 |  | 0.447 | 0.38 | 0.36 | 0.151 | 0.134 | 0.128 | 0.104 | 0.111 |
| NCI-H441 | 0.759 | 0.896 | 0.721 | 0.429 | 0.326 | 0.639 | 1.24 | 0.648 | 0.703 | 0.709 | 1.27 | 1.32 | 1.05 | 1.1 | 0.956 | 0.191 | 0.189 | 0.199 | 0.172 | 0.193 |
| NCI-H460 | 0.926 | 1.1 | 0.245 | 0.405 | 0.111 | 1.01 | 1.36 | 1.03 | 0.842 | 0.3 | 0.496 | 0.579 | 0.603 | 0.757 | 0.519 | 0.227 | 0.144 | 0.0866 | 0.0886 | 0.0189 |
| NCI-H647 | 0.625 | 0.607 | 0.522 | 0.256 | 0.15 | 1.27 | 1.33 | 0.883 | 0.675 | 0.232 | 0.497 | 0.496 | 0.349 | 0.37 | 0.238 | 0.378 | 0.47 | 0.423 | 0.228 | 0.107 |
| NCI-H650 | 0.412 | 0.514 | 0.384 | 0.447 | 0.337 | 0.778 | 0.708 | 0.706 | 0.627 | 0.606 | 0.954 | 0.923 | 1.1 | 1.04 | 0.928 | 0.372 | 0.357 | 0.36 | 0.313 | 0.324 |
| NCI-H727 | 1.04 | 1.17 | 1.33 | 1.15 | 1.13 | 0.912 | 0.965 | 0.664 | 0.648 | 0.353 | 0.591 | 0.52 | 0.512 | 0.536 | 0.472 | 0.646 | 0.686 | 0.589 | 0.581 | 0.642 |
